Reference: ChEMBL document CHEMBL1201862, “PubChem BioAssay data set” (2004)
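Interpolation was linear, between the two tested concentrations surrounding the appropriate level; five concentrations were tested over 48 hours in 96-well plates. At the GI50, growth is halved.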 Calls of active or inactive are those of the source. No stated cut-off is given here; in the data, active = GI50 up to about 1.1 µM and inactive = higher.

How the values were obtained:
Assay in all cases: NCI tumour cell line growth inhibition, 48 h
NCI-H522 = tested on: NCI-H522
NCI-H226 = tested on: NCI-H226
LOX IMVI = tested on: LOX IMVI
OVCAR-8 = tested on: OVCAR-8
ACHN = tested on: ACHN
A549 = tested on: A549
HCT-116 = tested on: HCT-116
UO-31 = tested on: UO-31
RXF 393 = tested on: RXF 393
U-251 = tested on: U-251
UACC-62 = tested on: UACC-62
MOLT-4 = tested on: MOLT-4
M14 = tested on: M14
COLO 205 = tested on: COLO 205
NCI/ADR-RES = tested on: NCI/ADR-RES
MDA-MB-435 = tested on: MDA-MB-435
MCF7 = tested on: MCF7
MDA-MB-231 = tested on: MDA-MB-231
T47D = tested on: T47D

Measured: GI50

C=CCNC(=O)/C=C\C(=O)O
inactive: NCI-H522 > 100 µM | NCI-H226 > 100 µM | LOX IMVI > 100 µM | OVCAR-8 > 100 µM | ACHN > 100 µM | A549 > 100 µM | HCT-116 > 100 µM | UO-31 > 100 µM | RXF 393 > 100 µM | U-251 > 100 µM | UACC-62 > 100 µM | MOLT-4 > 100 µM | M14 > 100 µM | COLO 205 > 100 µM

O=C(Nc1nc2ccc([N+](=O)[O-])cc2[n+]([O-])n1)C(F)(F)F
inactive: NCI-H522 21 µM | NCI/ADR-RES 32.4 µM | NCI-H226 49.8 µM | MDA-MB-435 17.6 µM | MCF7 20 µM | OVCAR-8 21 µM | MDA-MB-231 26.9 µM | ACHN 22 µM | A549 24.6 µM | T47D 35.2 µM | HCT-116 19.8 µM | UO-31 40.8 µM | RXF 393 54.8 µM | U-251 30.2 µM | UACC-62 21.3 µM | MOLT-4 24.4 µM | M14 37.3 µM | COLO 205 4.65 µM

CNC(=O)CNC(=O)CCC(=O)OC
inactive: NCI-H522 66.2 µM | NCI/ADR-RES > 100 µM | MDA-MB-435 > 100 µM | MCF7 > 100 µM | OVCAR-8 > 100 µM | MDA-MB-231 > 100 µM | ACHN > 100 µM | A549 > 100 µM | T47D > 100 µM | HCT-116 > 100 µM | UO-31 > 100 µM | RXF 393 > 100 µM | U-251 > 100 µM | UACC-62 > 100 µM | MOLT-4 > 100 µM | M14 > 100 µM | COLO 205 > 100 µM

O=[N+]([O-])/C(C(Cl)=C(Cl)Cl)=C(\N1CCOCC1)n1nnc2ccccc21
inactive: NCI-H522 16 µM | NCI/ADR-RES 25.9 µM | NCI-H226 26.8 µM | MDA-MB-435 17 µM | MCF7 19.7 µM | MDA-MB-231 17.5 µM | ACHN 18.7 µM | A549 16.7 µM | T47D 16.9 µM | HCT-116 18.7 µM | UO-31 17.8 µM | U-251 16.7 µM | UACC-62 23.3 µM | MOLT-4 33.5 µM | M14 17.2 µM | COLO 205 18.8 µM

Oc1c(Cl)c(Cl)c(O)c(CCNc2nccs2)c1Cl
inactive: NCI-H522 2.02 µM | NCI/ADR-RES 19.6 µM | MDA-MB-435 16.1 µM | MCF7 2.41 µM | OVCAR-8 16.6 µM | ACHN 6.44 µM | A549 21.6 µM | T47D 5.48 µM | HCT-116 7.66 µM | UO-31 16.4 µM | RXF 393 7.23 µM | U-251 11.3 µM | UACC-62 17.1 µM | MOLT-4 48.8 µM | M14 15.7 µM | COLO 205 11.3 µM
active: MDA-MB-231 0.119 µM

CC(=O)NC(CCCNC(=O)OCc1ccccc1)C(=O)O (stereo not given)
inactive: NCI-H522 > 100 µM | NCI-H226 > 100 µM | LOX IMVI > 100 µM | OVCAR-8 > 100 µM | ACHN > 100 µM | A549 > 100 µM | HCT-116 > 100 µM | UO-31 > 100 µM | RXF 393 > 100 µM | U-251 > 100 µM | UACC-62 > 100 µM | MOLT-4 > 100 µM | M14 > 100 µM | COLO 205 > 100 µM

COCOc1ccc(Cn2c(=O)n(C)c(=O)c3c2ncn3C)cc1[N+](=O)[O-]
inactive: NCI-H522 > 100 µM | NCI-H226 46.3 µM | LOX IMVI > 100 µM | OVCAR-8 > 100 µM | ACHN > 100 µM | A549 > 100 µM | HCT-116 > 100 µM | UO-31 > 100 µM | RXF 393 > 100 µM | U-251 > 100 µM | UACC-62 > 100 µM | MOLT-4 91.8 µM | M14 > 100 µM | COLO 205 > 100 µM

CCOC(=O)CCC1(C(=O)OCC)CCCC1=O (stereo not given)
inactive: NCI-H522 > 100 µM | NCI-H226 > 100 µM | LOX IMVI 47.6 µM | OVCAR-8 > 100 µM | ACHN > 100 µM | A549 > 100 µM | HCT-116 68.4 µM | UO-31 > 100 µM | RXF 393 > 100 µM | U-251 > 100 µM | UACC-62 > 100 µM | MOLT-4 > 100 µM | M14 > 100 µM | COLO 205 > 100 µM

O=C(CSc1nnc(-c2ccc(/N=C\c3ccc(Cl)cc3)cc2)o1)Nc1ccccc1
inactive: NCI-H522 16.9 µM | NCI-H226 > 100 µM | LOX IMVI 19.6 µM | OVCAR-8 > 100 µM | ACHN > 100 µM | A549 > 100 µM | HCT-116 16.6 µM | UO-31 98.4 µM | RXF 393 33 µM | U-251 52 µM | UACC-62 73.8 µM | MOLT-4 39.6 µM | M14 76 µM | COLO 205 > 100 µM

CCc1nc2ccccc2c(=O)n1/N=C(\N=N\c1ccc(Cl)cc1)c1ccccc1
inactive: NCI-H522 20.1 µM | NCI-H226 21.8 µM | LOX IMVI 16.9 µM | OVCAR-8 35.2 µM | ACHN 31.8 µM | A549 23.3 µM | HCT-116 17.3 µM | UO-31 19.5 µM | RXF 393 14.2 µM | U-251 26.9 µM | UACC-62 30.8 µM | MOLT-4 28.1 µM | M14 34.2 µM | COLO 205 31.3 µM

C=C(C)/C=C/C(O)[C@](C)(O)[C@H]1[C@H](O)C[C@@]2(C)[C@@H]3CCc4c(cc(OC5OC(CO)C(O)C(O)C5O)c(O)c4C)C3(C)C(=O)C[C@]12C (stereo not given in full)
inactive: NCI-H522 > 100 µM | NCI/ADR-RES > 100 µM | NCI-H226 > 100 µM | LOX IMVI > 100 µM | MDA-MB-435 > 100 µM | MCF7 > 100 µM | OVCAR-8 > 100 µM | MDA-MB-231 > 100 µM | ACHN > 100 µM | A549 > 100 µM | T47D > 100 µM | HCT-116 > 100 µM | UO-31 > 100 µM | RXF 393 > 100 µM | U-251 > 100 µM | UACC-62 49 µM | MOLT-4 > 100 µM | M14 > 100 µM | COLO 205 > 100 µM

CC1CC(C)C2OC2(C)C[C@H](C)C(=O)NC(C)C(=O)N(C)[C@H](Cc2c(Br)[nH]c3ccccc23)C(=O)N[C@@H](c2ccc(O)cc2)CC(=O)O1 (stereo not given in full)
inactive: OVCAR-8 4.89 µM | ACHN 2.16 µM | UO-31 10 µM | RXF 393 1.47 µM | UACC-62 2.5 µM | MOLT-4 1.34 µM
active: NCI-H522 0.0504 µM | NCI-H226 0.373 µM | LOX IMVI 0.0466 µM | A549 0.28 µM | HCT-116 0.0396 µM | U-251 0.0404 µM | M14 0.729 µM | COLO 205 0.0214 µM

CCC[S+]([O-])c1nc(COC(=O)NC)c(COC(=O)NC)n1C (stereo not given)
inactive: NCI-H522 > 100 µM | NCI/ADR-RES > 100 µM | NCI-H226 > 100 µM | LOX IMVI > 100 µM | MCF7 > 100 µM | OVCAR-8 > 100 µM | A549 > 100 µM | HCT-116 > 100 µM | UO-31 > 100 µM | RXF 393 > 100 µM | U-251 > 100 µM | UACC-62 > 100 µM | MOLT-4 > 100 µM | M14 > 100 µM | COLO 205 > 100 µM
